Measurements reported in patent US10851096B2, “Aryl and heteroaryl amides for use as anti-proliferative, anti-thrombotic, and anti-viral agents” (Rutgers, The State University of New Jersey, priority 2016, dated 2020).

Legend:
H1299 cells [1] = test: Colony forming assay, H1299; format: cell-based, human; settings: H1299 cultured in the presence of Gas6
Experimental: H1299 cells were plated in 6 well plates at a very low density (˜250 cells/well). Next day, the cells were treated with the SMIs at different concentrations. The cells were incubated with the drugs for 14 days. After 14 days, colonies were stained with 0.25% crystal violet in 95% ethanol. Colonies consisting of more than 50 cells were counted.

hAxl/IFN-γR1 = target: T1, hAxl/IFN-γR1 (Homo sapiens, UniProt P30530); test: hAxl/IFN-γR1 CHO reporter cell line assay, Gas6-induced activation (pSTAT1 immunoblot); format: cell-based; settings: for apparent EC50, anti-Axl activity: Axl reporter system; for IC50: dose-response, FIG. 2A/2B, read-out: IC50, Axl-inhibitory activity on hAxl/IFN-γR1 reporter cell lines
T1 construct: containing human Axl extracellular domains and transmembrane and intracellular domains of human IFN-γR1; human IFN-γR1 transmembrane and intracellular domains (fusion partner); expressed in transfected cells
T1 sequence (P30530 26-451 limits assumed): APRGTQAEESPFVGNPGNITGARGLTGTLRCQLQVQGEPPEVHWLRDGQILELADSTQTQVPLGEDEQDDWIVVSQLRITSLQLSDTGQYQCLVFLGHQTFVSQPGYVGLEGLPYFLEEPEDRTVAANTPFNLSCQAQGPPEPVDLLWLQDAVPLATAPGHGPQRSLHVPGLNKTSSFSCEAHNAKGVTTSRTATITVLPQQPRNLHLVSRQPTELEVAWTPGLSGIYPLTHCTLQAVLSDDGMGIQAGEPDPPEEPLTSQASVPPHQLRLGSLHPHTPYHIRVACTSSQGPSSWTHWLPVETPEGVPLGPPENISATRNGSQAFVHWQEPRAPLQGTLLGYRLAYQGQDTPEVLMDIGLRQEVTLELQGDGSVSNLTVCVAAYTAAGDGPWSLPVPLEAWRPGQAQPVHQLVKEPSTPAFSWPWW
Experimental: Stable HEK 293 cells secreting human Gas6 (clone 7.4.1) were allowed to achieve 70% confluence in a 10-cm plate. The complete medium with 10% FBS was then changed into serum free media in the presence of 10 µg/mL vitamin K1 (Phytonadione injectable emulsion from Hospira). After 72 hours, the Gas6 conditioned medium was collected, and validated for the presence of Gas6 and γ-carboxylation (by immunoblot) and activity of Gas6 (via activation of pSTAT1 in hAxl/γR1 cells).
(§1) Stable hAxl/IFN-γR1 CHO reporter cell lines (containing human Axl extracellular domains and transmembrane and intracellular domains of human IFN-γR1) were serum starved for 5 hrs±small molecule inhibitors and then stimulated with human Gas6 conditioned media±small molecule inhibitors for 30 minutes. For H1299 human non-small cell lung carcinoma and MDA-MB-231 human breast adenocarcinoma cell lines, the cells were serum starved overnight±small molecule inhibitors and stimulated with human Gas6 conditioned media±small molecule inhibitors for 30 minutes. Whole cell lysates of hAxl/IFN-γR1, H1299 and MDA-MB-231 cells were prepared using HNTG buffer (20 mM HEPES, pH 7.5, 150 mM NaCl, 10% glycerol, 1% Triton X-100, 1 mM PMSF, 1 mM Na3VO4, 10 mM Na2MoO4, 1 mM EDTA, 10 mM NaF and 20 μg/mL aprotinin). The resulting lysates were resolved on SDS-PAGE gel and immunoblotted with respective antibodies.
(§2) Immunoblot data were obtained within a linear range of exposure, and intensities were quantified by ImageJ. The levels of hAxl/IFN-γR1 cells lines activation were measured by pSTAT1 whereas the levels of H1299 and MDA-MB-231 cell lines activation were measured by pAxl signal intensities. Blots were normalized to intensities of respective β-actin or GAPDH protein loading controls. The levels of pSTAT1 or pAxl activation induced by Gas6±small molecule inhibitors were plotted as a fold of enhancement or reduction over intensities induced by Gas6 alone.

[2] = Pharmacokinetics in mice (half-life, bioavailability); format: in vivo, mouse; settings: for half-life: mouse, in vivo, read-out: half-life (t1/2) (converted)
H1299 cells [3] = test: Gas6-inducible motility through transwell pore, H1299; format: cell-based, human; settings: pretreatment of H1299 cells
native Axl = target: T2, native Axl (Homo sapiens, UniProt P30530); test: Gas6-inducible phosphorylation of native Axl in H1299 cells (immunoblot); format: cell-based; settings: H1299 lung cancer cell line, FIG. 5B
T2 construct: Gas6-inducible phosphorylation of native Axl (pAxl); endogenous in cells; host or cells: MDA-MB-231
T2 sequence (P30530 26-894): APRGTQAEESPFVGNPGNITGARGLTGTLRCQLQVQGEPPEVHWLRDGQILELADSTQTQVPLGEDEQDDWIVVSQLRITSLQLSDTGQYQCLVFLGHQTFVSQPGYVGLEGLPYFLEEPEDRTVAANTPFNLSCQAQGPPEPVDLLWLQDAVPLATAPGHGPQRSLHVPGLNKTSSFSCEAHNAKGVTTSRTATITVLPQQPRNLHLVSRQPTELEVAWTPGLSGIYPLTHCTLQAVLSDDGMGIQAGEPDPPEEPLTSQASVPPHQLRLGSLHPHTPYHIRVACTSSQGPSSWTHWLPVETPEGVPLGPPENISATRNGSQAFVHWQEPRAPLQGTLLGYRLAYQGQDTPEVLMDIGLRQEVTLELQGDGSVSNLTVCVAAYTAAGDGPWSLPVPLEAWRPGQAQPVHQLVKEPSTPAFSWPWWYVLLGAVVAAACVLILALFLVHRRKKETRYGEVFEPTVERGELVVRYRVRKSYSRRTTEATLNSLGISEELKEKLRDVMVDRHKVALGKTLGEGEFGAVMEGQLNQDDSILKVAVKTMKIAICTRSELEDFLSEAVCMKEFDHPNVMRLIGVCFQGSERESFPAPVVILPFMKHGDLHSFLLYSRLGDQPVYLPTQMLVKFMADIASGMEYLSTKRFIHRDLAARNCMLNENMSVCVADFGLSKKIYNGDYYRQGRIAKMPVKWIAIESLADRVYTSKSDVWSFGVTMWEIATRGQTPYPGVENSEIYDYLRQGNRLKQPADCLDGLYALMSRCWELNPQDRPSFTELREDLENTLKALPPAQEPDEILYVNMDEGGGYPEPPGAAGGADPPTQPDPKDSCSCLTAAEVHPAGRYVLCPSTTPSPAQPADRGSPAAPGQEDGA
Experimental: as §1
as §2, with “The levels of pSTAT1 or pAxl activation induced by Gas6±small molecule inhibitors were plotted as a fold of enhancement or reduction over intensities induced by Gas6 alone.” left out

| Structure (SMILES) | clonogenic growth (H1299 cells [1]) | remaining activity at 10 µM (hAxl/IFN-γR1) [%] | apparent EC50, anti-Axl activity (hAxl/IFN-γR1) | IC50 (hAxl/IFN-γR1) [µM] | bioavailability [2] | half-life [2] [h] | Gas6-inducible motility through an 8 μm pore (H1299 cells [3]) | inhibition of activation (phosphorylation) of Axl (native Axl) |
| --- | --- | --- | --- | --- | --- | --- | --- | --- |
| Cc1noc(C)c1CSc1ccccc1C(=O)N1CCN(c2cccc(C(F)(F)F)c2)CC1 [1I] | suppressed clonogenic growth | 20 | low micro-molar range | 1.15 | good bioavailability | ~8 | strongly suppressed | potent inhibition |
| Cc1cc(CSc2ccccc2C(=O)NCCNc2ccc(C(F)(F)F)cc2[N+](=O)[O-])on1 [1Q] | suppressed clonogenic growth | 10 | low micro-molar range | 1.25 | good bioavailability | ~8 | strongly suppressed | potent inhibition |
